One test addresses PTGER4 (EP4) (Homo sapiens (Human), UniProt P35408). Description: cell-based.
For a further test, the target named is PTGER2 (EP2) (Homo sapiens (Human), UniProt P43116). Description: hEP2 b-arrestin assay (PathHunter HEK 293 PTGER2 b-arrestin cells). The format is cell-based. The following applies: antagonistic activity, beta-arrestin assay; read-out: hEP2 b-arr IC50. The procedure:
Plate is pre-incubated 15 minutes at 37° C. Then five microliters of PGE2 (final conc. 5 μM) are transferred into the assay plate. Plate is incubated 120 minutes at 37° C.
(each concentration is measured in duplicate)

Each structure is given as a SMILES string.

PTGER4 (EP4), sequence (P35408 whole entry): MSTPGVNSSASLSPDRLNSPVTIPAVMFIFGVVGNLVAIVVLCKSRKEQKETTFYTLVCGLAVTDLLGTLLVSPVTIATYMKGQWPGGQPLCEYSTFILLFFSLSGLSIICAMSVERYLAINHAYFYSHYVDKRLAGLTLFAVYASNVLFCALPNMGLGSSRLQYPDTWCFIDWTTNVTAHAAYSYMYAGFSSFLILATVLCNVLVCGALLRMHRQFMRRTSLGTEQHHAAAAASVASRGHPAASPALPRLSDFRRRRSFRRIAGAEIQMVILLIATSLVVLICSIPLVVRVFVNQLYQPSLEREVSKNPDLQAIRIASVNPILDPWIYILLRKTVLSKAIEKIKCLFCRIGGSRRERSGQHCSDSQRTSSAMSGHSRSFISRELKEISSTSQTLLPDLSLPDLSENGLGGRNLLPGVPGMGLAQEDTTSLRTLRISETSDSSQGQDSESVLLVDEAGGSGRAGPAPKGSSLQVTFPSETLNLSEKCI
PTGER2 (EP2), sequence (P43116 whole entry): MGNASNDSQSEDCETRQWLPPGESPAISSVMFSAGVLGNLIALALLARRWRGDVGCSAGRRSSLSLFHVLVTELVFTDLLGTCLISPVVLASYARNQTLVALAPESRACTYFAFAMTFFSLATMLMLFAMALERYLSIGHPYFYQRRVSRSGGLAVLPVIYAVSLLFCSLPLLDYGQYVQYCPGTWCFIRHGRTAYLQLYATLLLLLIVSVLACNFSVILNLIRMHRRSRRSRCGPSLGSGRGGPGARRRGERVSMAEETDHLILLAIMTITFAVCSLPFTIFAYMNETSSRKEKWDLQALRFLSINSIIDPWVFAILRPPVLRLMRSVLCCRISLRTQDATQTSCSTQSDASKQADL

A word on the IC50: it is the concentration that inhibits the measured activity by half. As for `O=C(O)c1ccc(-c2cc(NCCc3cc4c(cc3OC(F)F)OCCO4)ncn2)cc1OC1CCC1` [Example 494, 2-Cyclobutoxy-4-{6-[2-(7-difluoromethoxy-2,3-dihydro-benzo[1,4]dioxin-6-yl)-ethylamino]-pyrimidin-4-yl}-benzoic acid], the IC50 was found to be 0.209 µM against PTGER4 (EP4) and 0.34 µM at PTGER2 (EP2).
The matching figures for `CCCc1cc(-c2cc(NCCc3cc4c(cc3OCC)OCCO4)ncn2)ccc1CC(=O)O` [Example 402, (4-{6-[2-(7-Ethoxy-2,3-dihydro-benzo[1,4]dioxin-6-yl)-ethylamino]-pyrimidin-4-yl}-2-propyl-phenyl)-acetic acid]: 0.061 µM and 0.022 µM.
Turning to `CCOc1cc(-c2cc(NCCc3cc4ccsc4c(F)c3OC)ncn2)ccc1C(=O)O` [Example 404, 2-Ethoxy-4-{6-[2-(7-fluoro-6-methoxy-benzo[b]thiophen-5-yl)-ethylamino]-pyrimidin-4-yl}-benzoic acid], the values for the IC50 on PTGER4 (EP4) and at PTGER2 (EP2) were 0.08 µM and 0.02 µM, respectively.
The matching figures for `Cc1c(CCNc2cc(-c3ccc(C(=O)O)c(OC4CC4)c3)ncn2)ccc2c1OCCO2` [Example 519, 2-Cyclopropoxy-4-{6-[2-(5-methyl-2,3-dihydro-benzo[1,4]dioxin-6-yl)-ethylamino]-pyrimidin-4-yl}-benzoic acid]: 0.262 µM and 0.019 µM.
The matching figures for `CCOc1cc(-c2cc(NCCc3cc(F)c4sccc4c3)ncn2)ccc1C(=O)C(=O)O` [Example 537, (2-Ethoxy-4-{6-[2-(7-fluoro-benzo[b]thiophen-5-yl)-ethylamino]-pyrimidin-4-yl}-phenyl)-oxo-acetic acid]: 0.076 µM and 0.67 µM.
The matching figures for `COc1cc(-c2cc(NCCc3ccc4c(c3C)OCCO4)ncn2)ccc1CC(=O)O` [Example 505, (2-Methoxy-4-{6-[2-(5-methyl-2,3-dihydro-benzo[1,4]dioxin-6-yl)-ethylamino]-pyrimidin-4-yl}-phenyl)-acetic acid]: 0.929 µM and 0.427 µM.
Regarding `O=C(O)c1ccc(-c2cc(NCCc3ccc4scc(Cl)c4c3)ncn2)cc1OC1CCC1` [Example 430, 4-{6-[2-(3-Chloro-benzo[b]thiophen-5-yl)-ethylamino]-pyrimidin-4-yl}-2-cyclobutoxy-benzoic acid], the IC50 against PTGER4 (EP4) was found to be 0.066 µM; on PTGER2 (EP2), 0.069 µM.
The matching figures for `COc1cc2c(cc1CCNc1cc(-c3ccc(CC(=O)O)c(OC(F)F)c3)ncn1)OCCO2` [Example 522, (2-Difluoromethoxy-4-{6-[2-(7-methoxy-2,3-dihydro-benzo[1,4]dioxin-6-yl)-ethylamino]-pyrimidin-4-yl}-phenyl)-acetic acid]: 0.204 µM and 0.131 µM.
Consider `COc1cc(-c2cc(NCCc3cc(F)c4sccc4c3)ncn2)ccc1-c1cc(O)no1` [Example 553, 5-(4-{6-[2-(7-Fluoro-benzo[b]thiophen-5-yl)-ethylamino]-pyrimidin-4-yl}-2-methoxy-phenyl)-isoxazol-3-ol], for which the IC50 came out at 0.08 µM on PTGER4 (EP4) and 0.302 µM on PTGER2 (EP2).
The matching figures for `COc1cc2c(cc1CCNc1cc(-c3ccc(CC(=O)O)c(OC)c3)ncn1)OCCO2` [Example 383, (2-Methoxy-4-{6-[2-(7-methoxy-2,3-dihydro-benzo[1,4]dioxin-6-yl)-ethylamino]-pyrimidin-4-yl}-phenyl)-acetic acid]: 0.194 µM and 0.177 µM.
For `O=C(O)Cc1ccc(-c2cc(NCCc3ccc4scc(Cl)c4c3)ncn2)cc1OC(F)(F)F` [Example 499, (4-{6-[2-(3-Chloro-benzo[b]thiophen-5-yl)-ethylamino]-pyrimidin-4-yl}-2-trifluoromethoxy-phenyl)-acetic acid], in that order: 0.169 µM and 0.18 µM.
The matching figures for `CCOc1cc(-c2cc(NCCc3cc4ccsc4c(F)c3OC)ncn2)ccc1CC(=O)O` [Example 406, (2-Ethoxy-4-{6-[2-(7-fluoro-6-methoxy-benzo[b]thiophen-5-yl)-ethylamino]-pyrimidin-4-yl}-phenyl)-acetic acid]: 0.062 µM and 0.045 µM.
For the molecule `COc1cc(-c2cc(NCCc3cc4ccsc4c(F)c3OC)ncn2)ccc1CC(=O)O` [Example 485, (4-{6-[2-(7-Fluoro-6-methoxy-benzo[b]thiophen-5-yl)-ethylamino]-pyrimidin-4-yl}-2-methoxy-phenyl)-acetic acid], the IC50 at PTGER4 (EP4) turned out to be 0.122 µM; at PTGER2 (EP2), 0.125 µM.
Take `CCOc1cc(-c2cc(NCCc3ccc4sccc4c3F)ncn2)cc(F)c1CC(=O)O` [Example 375, (2-Ethoxy-6-fluoro-4-{6-[2-(4-fluoro-benzo[b]thiophen-5-yl)-ethylamino]-pyrimidin-4-yl}-phenyl)-acetic acid]: the values for the IC50 at PTGER4 (EP4) and at PTGER2 (EP2) were 0.046 µM and 0.229 µM, respectively.
The matching figures for `CCn1cc(-c2cc(NCCc3cc(F)c4sccc4c3)ncn2)cc1C(=O)O` [Example 547, 1-Ethyl-4-{6-[2-(7-fluoro-benzo[b]thiophen-5-yl)-ethylamino]-pyrimidin-4-yl}-1H-pyrrole-2-carboxylic acid]: 0.322 µM and 0.825 µM.
For `CCCc1cc(-c2cc(NCCc3ccc4sccc4c3)ncn2)ccc1C(C)C(=O)O` (racemic) [Example 481, rac-2-{4-[6-(2-Benzo[b]thiophen-5-yl-ethylamino)-pyrimidin-4-yl]-2-propyl-phenyl}-propionic acid], in that order: 0.063 µM and 0.328 µM.
The matching figures for `O=C(O)c1ccc(-c2cc(NCCc3cc(F)c4sccc4c3)ncn2)cc1F` [Example 554, 2-Fluoro-4-{6-[2-(7-fluoro-benzo[b]thiophen-5-yl)-ethylamino]-pyrimidin-4-yl}-benzoic acid]: 0.884 µM and 0.739 µM.
For the molecule `CCCc1cc(-c2cc(NCCc3cc(F)c4sccc4c3)ncn2)ccc1C(=O)NC` [Example 458, 4-{6-[2-(7-Fluoro-benzo[b]thiophen-5-yl)-ethylamino]-pyrimidin-4-yl}-N-methyl-2-propyl-benzamide], the values for the IC50 at PTGER4 (EP4) and at PTGER2 (EP2) were 0.104 µM and 0.55 µM, respectively.
`CCOc1cc(-c2cc(NCCc3ccc4c(c3C)OCCO4)ncn2)ccc1C(=O)O` [Example 508, 2-Ethoxy-4-{6-[2-(5-methyl-2,3-dihydro-benzo[1,4]dioxin-6-yl)-ethylamino]-pyrimidin-4-yl}-benzoic acid]: the figures for the IC50 on PTGER4 (EP4) and on PTGER2 (EP2) were 0.748 µM and 0.085 µM, respectively.
For `CCCc1cc(-c2cc(NCCc3cc(C)c4sccc4c3)ncn2)ccc1C(=O)O` [Example 478, 4-{6-[2-(7-Methyl-benzo[b]thiophen-5-yl)-ethylamino]-pyrimidin-4-yl}-2-propyl-benzoic acid], in that order: 0.242 µM and 0.788 µM.
For `COC(=O)c1sc(-c2cc(NCCc3ccc4ccccc4c3C)ncn2)cc1O` [Example 468, 3-Hydroxy-5-{6-[2-(1-methyl-naphthalen-2-yl)-ethylamino]-pyrimidin-4-yl}-thiophene-2-carboxylic acid methyl ester], in that order: 0.571 µM and 0.564 µM.
Consider `CC(C)Cc1cc(-c2cc(NCCc3cc(F)c4sccc4c3)ncn2)ccc1C(=O)O` [Example 414, 4-{6-[2-(7-Fluoro-benzo[b]thiophen-5-yl)-ethylamino]-pyrimidin-4-yl}-2-isobutyl-benzoic acid], for which the figures for the IC50 at PTGER4 (EP4) and at PTGER2 (EP2) were 0.048 µM and 0.219 µM, respectively.
For `C#Cc1cc2c(cc1CCNc1cc(-c3ccc(CC(=O)O)c(OC)c3)ncn1)OCCO2` [Example 503, (4-{6-[2-(7-Ethynyl-2,3-dihydro-benzo[1,4]dioxin-6-yl)-ethylamino]-pyrimidin-4-yl}-2-methoxy-phenyl)-acetic acid], in that order: 0.157 µM and 0.102 µM.
The matching figures for `CCCn1cc(-c2cc(NCCc3cc(F)c4sccc4c3)ncn2)cc1C(=O)O` [Example 548, 4-{6-[2-(7-Fluoro-benzo[b]thiophen-5-yl)-ethylamino]-pyrimidin-4-yl}-1-propyl-1H-pyrrole-2-carboxylic acid]: 0.295 µM and 0.933 µM.
The matching figures for `COc1cc2c(cc1CCNc1cc(-c3ccc(CC(=O)O)c(OC(C)C)c3)ncn1)OCCO2` [Example 523, (2-Isopropoxy-4-{6-[2-(7-methoxy-2,3-dihydro-benzo[1,4]dioxin-6-yl)-ethylamino]-pyrimidin-4-yl}-phenyl)-acetic acid]: 0.195 µM and 0.227 µM.
For `COc1c(CCNc2cc(-c3ccc(C(=O)O)c(SC)c3)ncn2)cc2ccsc2c1F` [Example 405, 4-{6-[2-(7-Fluoro-6-methoxy-benzo[b]thiophen-5-yl)-ethylamino]-pyrimidin-4-yl}-2-methylsulfanyl-benzoic acid], the figures for the IC50 at PTGER4 (EP4) and on PTGER2 (EP2) were 0.079 µM and 0.009 µM, respectively.
The matching figures for `O=C(O)Cc1ccc(-c2cc(NCCc3cc(F)c4sccc4c3)ncn2)cc1OC(F)F` [Example 540, (2-Difluoromethoxy-4-{6-[2-(7-fluoro-benzo[b]thiophen-5-yl)-ethylamino]-pyrimidin-4-yl}-phenyl)-acetic acid]: 0.146 µM and 0.339 µM.
`CCCOc1cc(-c2cc(NCCc3cc4ccsc4cc3OC)ncn2)ccc1CC(=O)O` [Example 392, (4-{6-[2-(6-Methoxy-benzo[b]thiophen-5-yl)-ethylamino]-pyrimidin-4-yl}-2-propoxy-phenyl)-acetic acid]: the IC50 came to 0.292 µM against PTGER4 (EP4) and 0.066 µM at PTGER2 (EP2).
For `CCCc1cc(-c2cc(NCCc3cc(F)c4sccc4c3)ncn2)ccc1C(=O)NCC(C)(C)O` [Example 459, 4-{6-[2-(7-Fluoro-benzo[b]thiophen-5-yl)-ethylamino]-pyrimidin-4-yl}-N-(2-hydroxy-2-methyl-propyl)-2-propyl-benzamide], in that order: 0.236 µM and 0.683 µM.

The record behind these values is US11839613B2, “Pyrimidine derivatives as PGE2 receptor modulators” (IDORSIA PHARMACEUTICALS LTD, priority 2017, dated 2023).
